Reference: patent US10092515B2, “Liposomal formulations of polymyxin B and uses thereof” (University of Houston System, priority 2012, dated 2018)
Read-outs that look alike come from different tables or passages of the source. Where a SMILES comes first, the peptide text is derived from it. Bridges are numbered along the chain shown (N, C = ends). [ ]: non-standard residue; d: D form. The star is where a group is joined. Heptanoyl(6-Me) = CC(C)CCCCC(=O)*; X1 = CC[C@H](C)CCCCC(=O)*; Octanoyl = CCCCCCCC(=O)*; Dab = NCC[C@H](N)C(=O)O

Assays:
[1] = Kidney exposure after IV polymyxin liposome or solution (USP); assay type: in vivo, mice; details: for AUC(0-t) / AUC0-6 h, kidney: female, ND4 Swiss Webster
[2] = Epithelial lining fluid (ELF) pharmacokinetics after intravenous polymyxin B liposomes or aqueous solution (USP); assay type: in vivo, Swiss Webster mice; details: for AUC(0-t): female, ND4 Swiss Webster, n = 4, read-out: AUC0-6 h, epithelial lining fluid
Procedure: (§1) The animal protocol was approved by the University of Houston Institutional Animal Care and Use Committee. The animals received food and water ad libitum. Two groups of 24 female ND4 Swiss Webster mice (20-23 g, Harlan Laboratory, Indianapolis, Ind.) were intravenously administrated PB liposomes and aqueous solution (USP), respectively, at approximately 3 mg/kg through the tail vein. At each time point (0.1, 0.5, 1, 2, 4 and 6 h post-dose), four mice were sacrificed for blood and epithelial lining fluid sample collection. The blood samples were clotted on crushed ice and the serum was obtained by centrifugation. The epithelial lining fluid samples were obtained by bronchoalveolar lavage. All the serum and epithelial lining fluid samples were stored at −80° C. until analysis.
(§2) Four major polymyxin B components in serum and epithelial lining fluid samples were assayed by a validated UPLC-MS/MS method. An Acquity UPLC HSS C18 column was used with 0.1% formic acid/acetonitrile as mobile phases. Analysis was performed in positive ionization mode with multiple reactions monitoring (MRM) scan type. Briefly, the serum and epithelial lining fluid samples (200 μl) were spiked with 20 μl of carbutamide (internal standard). Two hundred μl of 5% trichloroacetic acid was added to precipitate the proteins, followed by 1 min of vortexing. After centrifugation at 18,000× g for 15 min, the supernatant was transferred to a new tube and evaporated to dryness under a stream of nitrogen. The residue was reconstituted in 100 μl of mobile phase (acetonitrile: 0.1% formic acid=50:50) and then centrifuged at 18,000×g for 15 minutes. Ten μl of supernatant was injected into the UPLC-MS/MS for quantitative analysis. The linear concentration range was 6.5-3200 ng/ml for both serum and epithelial lining fluid samples. The intra-day and inter-day variance was less than […] for all the components in both serum and epithelial lining fluid. The concentration of drug in epithelial lining fluid (CELF) was corrected using the equation: CELF=CBALF× Ureaserum/UreaBALF, where UreaBALF and Ureaserum were the concentrations of urea in bronchoalveolar lavage fluid (BALF) and serum, respectively (18).
(§3) Concentrations of urea in serum and BALF samples were quantified with a commercially available assay kit (Quantichrom™ Urea Assay kit, BioAssay System, Hayward, Calif.) and measured on a Synergy2 microplate reader (BioTek Instrument, Winooski, Vt.). Drug exposures observed in both serum and epithelial lining fluid were normalized by the specific dose of each batch of liposomes to account for the variances among different pharmacokinetic experiments. Naïve data averaging was used; the best-fit pharmacokinetic parameters as well as drug exposure in serum and ELF were calculated by WinNonlin 3.3 (Pharsight Corporation, Mountain View, Calif.) using a one-compartment model and non-compartmental analysis, respectively. Statistical differences between liposome and aqueous solution were determined by Mann-Whitney test at the significance level of p≤0.05.

[3] = Serum pharmacokinetics after intravenous polymyxin B liposomes or aqueous solution (USP); assay type: in vivo, Swiss Webster mice; details: for AUC(0-t): n = 4, normalized by dose, read-out: AUC0-6 h
Procedure: as §1, §2, §3

Lrp2/megalin = test: Urinary excretion of megalin after maleate administration (ELISA); assay type: in vivo; details: rats, single 400 mg/kg intraperitoneal dose
Procedure: Three rats were housed individually in separate metabolic cages 24 h prior to maleate pretreatment. A single dose of 400 mg/kg of sodium maleate was given intraperitoneally; this was previously reported to induce reversible ultrastructural modifications in the apical brush border membrane of proximal renal tubules (34). To study megalin urinary excretion, cumulative urine was collected daily from day −1 to day 15. The urine samples were spun down to remove particulate matter. Subsequently, the urine samples were aliquoted and stored at −80° C. prior to analysis. The samples were thawed, and urinary Lrp2/megalin concentrations were quantitatively measured using a commercially available ELISA kit for megalin. For each animal, the daily megalin concentrations were expressed as a normalized ratio to the baseline megalin value.

proximal tubules = test: Electron microscopy of maleate-treated kidney sections; assay type: in vivo; details: rats
Procedure: For morphological studies, one animal was sacrificed at 3 h and another at 14 days after maleate administration to collect the kidneys. The harvested kidneys were submitted for electron microscopic studies. Tissue samples from both renal cortical and medullary regions were fixed in 2% glutaraldehyde at 4° C. overnight, followed by additional fixation in osmium tetroxide. The renal tissue was dehydrated and embedded in epoxy resin. Approximately 1-μm pilot sections were stained with toluidine for selection of the areas for further ultrastructural examination. Thin sections of these selected areas were cut and subjected to examination under a JEOL 300 electron microscope at 80 kV. The kidneys from two naive rats were harvested, processed in a similar fashion, and used as controls.

[4] = mouse, in vivo, iv, 3 mg/kg, AUC0-6 h, kidney
[5] = female, ND4 Swiss Webster, mouse, in vivo, iv

AUC0-6 h, kidney ([1]; mouse, in vivo, iv, 3 mg/kg) [ng·h/mL]	AUC(0-t) [1, 4] [ng·h/mL]	AUC ratio (liposome:solution), kidney ([1]; mouse, in vivo, iv, 3 mg/kg)	time post-dose up to which the component could be quantified in ELF ([2]; mouse, in vivo, iv)	AUC ratio (liposome:solution), epithelial lining fluid ([2]; mouse, in vivo, iv, 3 mg/kg)	half-life [3, 5] [min]	T1/2 (elimination half-life) ([3]; mouse, in vivo, iv) [min]	SMILES	other results
–	–	–	–	–	–	–	CC[C@H](C)CCCCC(=O)N[C@@H](CCN)C(=O)N[C@H](C(=O)N[C@@H](CCN)C(=O)N[C@H]1CCNC(=O)[C@H]([C@@H](C)O)NC(=O)[C@H](CCN)NC(=O)[C@H](CCN)NC(=O)[C@H](CC(C)C)NC(=O)[C@@H](Cc2ccccc2)NC(=O)[C@H](CCN)NC1=O)[C@@H](C)O [PB1, polymyxin B1] (X1-[Dab]T[Dab][Dab][Dab][dF]L[Dab][Dab]T; lactam 4-C)	AUC(0-t) ([1]; mouse, in vivo, iv, 3 mg/kg, kidney, mice, IV 3 mg/kg polymyxin liposome, n = 24, read-out: AUC0-6 h, kidney): 28400 ng·h/mL; AUC(0-t) ([1]; mouse, in vivo, iv, 3 mg/kg, kidney, mice, IV 3 mg/kg polymyxin solution (USP), n = 24, read-out: AUC0-6 h, kidney): 34200 ng·h/mL; AUC ratio (liposome:solution), kidney ([1]; kidney, mice, IV 3 mg/kg): 0.83; AUC ratio (liposome:solution), epithelial lining fluid ([2]; ELF, mice, IV 3 mg/kg): 6.21; AUC(0-t) ([2]; mouse, in vivo, iv, 3 mg/kg, ELF, mice, IV 3 mg/kg polymyxin liposome): 9750 ng·h/mL; AUC(0-t) ([2]; mouse, in vivo, iv, 3 mg/kg, ELF, mice, IV 3 mg/kg polymyxin solution (USP)): 1570 ng·h/mL; half-life ([3]; female, ND4 Swiss Webster, mouse, in vivo, 3 mg/kg, serum, mice, IV polymyxin B liposomes, one-compartment model, read-out: T1/2 (elimination half-life) (converted)): 36 min; AUC(0-t) ([3]; female, ND4 Swiss Webster, mouse, in vivo, iv, 3 mg/kg, serum, mice, IV polymyxin B liposomes approx. 3 mg/kg): 4770 ng·h/mL; AUC(0-t) ([3]; female, ND4 Swiss Webster, mouse, in vivo, iv, 3 mg/kg, serum, mice, IV polymyxin B solution (USP) approx. 3 mg/kg): 2760 ng·h/mL; total clearance ([3]; mice, IV aqueous solution approx. 3 mg/kg): 1.4±0.5 I/h/kg; total clearance ([3]; mice, IV liposomal formulation approx. 3 mg/kg): 0.6±0.3 I/h/kg
12240	9440	0.77	up to 2 h	11.10	26.4	12.6	CC(C)CCCCC(=O)N[C@@H](CCN)C(=O)N[C@H](C(=O)N[C@@H](CCN)C(=O)N[C@H]1CCNC(=O)[C@H]([C@@H](C)O)NC(=O)[C@H](CCN)NC(=O)[C@H](CCN)NC(=O)[C@H](CC(C)C)NC(=O)[C@@H](Cc2ccccc2)NC(=O)[C@H](CCN)NC1=O)[C@@H](C)O [PB2, polymyxin B2] ({Heptanoyl(6-Me)}-[Dab]T[Dab][Dab][Dab][dF]L[Dab][Dab]T; lactam 4-C (inferred))	clearance [3, 5]: 5.14 mL/min/kg; Cl (clearance) ([3]; mouse, in vivo, iv): 14.998 mL/min/kg; Vss (volume of distribution at steady state) ([3]; mouse, in vivo, iv): 0.27474 L/kg
–	–	0.37	up to 2 h	4.92	18	16.8	CCCCCCCC(=O)N[C@@H](CCN)C(=O)N[C@H](C(=O)N[C@@H](CCN)C(=O)N[C@H]1CCNC(=O)[C@H]([C@@H](C)O)NC(=O)[C@H](CCN)NC(=O)[C@H](CCN)NC(=O)[C@H](CC(C)C)NC(=O)[C@@H](Cc2ccccc2)NC(=O)[C@H](CCN)NC1=O)[C@@H](C)O [PB3, polymyxin B3] (Octanoyl-[Dab]T[Dab][Dab][Dab][dF]L[Dab][Dab]T; lactam 4-C)	–
4980	4160	0.84	up to 4 h	4.55	25.2	17.4	CC[C@H](C)CCCCC(=O)N[C@@H](CCN)C(=O)N[C@H](C(=O)N[C@@H](CCN)C(=O)N[C@H]1CCNC(=O)[C@H]([C@@H](C)O)NC(=O)[C@H](CCN)NC(=O)[C@H](CCN)NC(=O)[C@H]([C@@H](C)CC)NC(=O)[C@@H](Cc2ccccc2)NC(=O)[C@H](CCN)NC1=O)[C@@H](C)O [ile-PB1, isoleucine polymyxin B1] (X1-[Dab]T[Dab][Dab][Dab][dF]I[Dab][Dab]T; lactam 4-C)	–
–	–	–	–	–	–	–	O=C([O-])/C=C\C(=O)[O-].[Na+].[Na+] [maleate, Sodium maleate dibasic salt]	elevation in the level of urinary megalin (Lrp2/megalin): approximately 20 times the baseline measurement; time until urinary megalin levels reverted to baseline (Lrp2/megalin): approximately 11 days; electron microscopic findings in kidney (proximal tubules; two weeks after 400 mg/kg intraperitoneally): no significant changes; electron microscopic findings in kidney (proximal tubules; within 3 h after 400 mg/kg intraperitoneally): morphological and ultrastructural changes in the proximal tubules
